Patent EP0582261A1, “Cephalosporin compounds and processes for the preparation thereof” (LUCKY LTD., priority 1992, dated 1994)

Key:
Test in all cases: MIC, two-fold dilution method on Müller-Hinton agar
Assay type in all cases: cell-based
Conditions in all cases: incubated at 37°C for 20 hours
[1] = tested on: Acinetobacter calcoaceticus ATCC 15473
Experimental: (§1) The same procedures as described in Example 163 were repeated using 7-amino-1,8-dimethyl[1,3]imidazo[1,2-c] pyrimidine-5-thione prepared in Preparation Example 36 in place of 7-amino-1-methyl[1,3]imidazo[1,2-c]pyrimidine-5-thione to yield 190mg and 180mg of the title compound(a) and (b), respectively, as white solids.
(§2) These MIC values were taken by employing a two-fold dilution method: that is, two-fold serial dilutions of each of the test compounds were made and dispersed in a Müller-Hinton agar medium; 2µl of the standard test strain which had the 10⁷ CFU(Colony Forming Unit) per ml was inoculated on the medium; and these were incubated at 37°C for 20 hours.

[2] = tested on: Bacillus cereus ATCC 11778
Experimental: as §1, §2

[3] = tested on: Bacillus megaterium ATCC 9885
Experimental: as §1, §2

[4] = tested on: Citrobacter freundii ATCC 8090
Experimental: as §1, §2

[5] = tested on: Enterobacter aerogenes ATCC 29751
Experimental: as §1, §2

[6] = tested on: Enterobacter cloacae ATCC 27508
Experimental: as §1, §2

[7] = tested on: Escherichia coli ATCC 10536
Experimental: as §1, §2

[8] = tested on: Escherichia coli ATCC 25922
Experimental: as §1, §2

[9] = tested on: Klebsiella pneumoniae ATCC 10031
Experimental: as §1, §2

[10] = tested on: Micrococcus luteus ATCC 9341
Experimental: as §1, §2

[11] = tested on: Morganella morganii ATCC 8076h
Experimental: as §1, §2

[12] = tested on: Proteus mirabilis ATCC 25933
Experimental: as §1, §2

[13] = tested on: Proteus vulgaris ATCC 6059
Experimental: as §1, §2

[14] = tested on: Providencia rettgeri ATCC 9250
Experimental: as §1, §2

[15] = tested on: Pseudomonas aeruginosa ATCC 10145
Experimental: as §1, §2

[16] = tested on: Pseudomonas aeruginosa ATCC 25619
Experimental: as §1, §2

[17] = tested on: Pseudomonas aeruginosa ATCC 27853
Experimental: as §1, §2

[18] = tested on: Salmonella typhimurium ATCC 14028
Experimental: as §1, §2

[19] = tested on: Serratia marcescens ATCC 27117
Experimental: as §1, §2

[20] = tested on: Shigella flexneri ATCC 11836
Experimental: as §1, §2

[21] = tested on: Shigella sonnei ATCC 11060
Experimental: as §1, §2

[22] = tested on: Staphylococcus aureus ATCC 10537
Experimental: as §1, §2

[23] = tested on: Staphylococcus aureus ATCC 6538p
Experimental: as §1, §2

[24] = tested on: Staphylococcus epidermidis ATCC 12228
Experimental: as §1, §2

[25] = tested on: Streptococcus faecalis ATCC 29212
Experimental: as §1, §2

Substance	MIC values against the standard strains [1] [µg/mL]	MIC values against the standard strains [2] [µg/mL]	MIC values against the standard strains [3] [µg/mL]	MIC values against the standard strains [4] [µg/mL]	MIC values against the standard strains [5] [µg/mL]	MIC values against the standard strains [6] [µg/mL]	MIC values against the standard strains [7] [µg/mL]	MIC values against the standard strains [8] [µg/mL]	MIC values against the standard strains [9] [µg/mL]	MIC values against the standard strains [10] [µg/mL]	MIC values against the standard strains [11] [µg/mL]	MIC values against the standard strains [12] [µg/mL]	MIC values against the standard strains [13] [µg/mL]	MIC values against the standard strains [14] [µg/mL]	MIC values against the standard strains [15] [µg/mL]	MIC values against the standard strains [16] [µg/mL]	MIC values against the standard strains [17] [µg/mL]	MIC values against the standard strains [18] [µg/mL]	MIC values against the standard strains [19] [µg/mL]	MIC values against the standard strains [20] [µg/mL]	also measured
7-[(Z)-2-(2-aminothiazol-4-yl)-2-(1-carboxycyclopentoxyimino)acetamido]-3-(2,7-diamino-1-methyl [1,2,4]triazolo[1,5-c]pyrimidinium-5-yl)thiomethyl-3-cephem-4-carboxylate [Exp. 84]	2	32	0.25	0.063	0.25	≤0.008	0.063	0.063	0.063	0.016	≤0.008	0.063	0.063	≤0.008	2	1	1	0.13	0.13	0.063	MIC values against the standard strains [21]: 0.13 µg/mL; MIC values against the standard strains [22]: 0.25 µg/mL; MIC values against the standard strains [23]: 0.25 µg/mL; MIC values against the standard strains [24]: 0.5 µg/mL; MIC values against the standard strains [25]: 32 µg/mL
7-[(Z)-2-(2-aminothiazol-4-yl)-2-(2-carboxyprop-2-oxyimino)acetamido]-3-(7-amino-1-methyl [1,2,4]triazolo[1,5-c]pyrimidinium-5-yl)thiomethyl-3-cephem-4-carboxylate [Exp. 1]	4	128	0.25	0.13	1	0.016	0.063	0.13	0.063	0.13	≤0.008	0.13	0.063	≤0.008	2	1	1	0.25	0.25	0.031	MIC values against the standard strains [21]: 0.13 µg/mL; MIC values against the standard strains [22]: 4 µg/mL; MIC values against the standard strains [23]: 4 µg/mL; MIC values against the standard strains [24]: 1 µg/mL; MIC values against the standard strains [25]: >128 µg/mL
7-[(Z)-2-(2-aminothiazol-4-yl)-2-((R)-1-carboxyprop-1-oxyimino)acetamido]-3-(2,7-diamino-1-methyl[1,2,4]triazolo[1,5-c]pyrimidinium-5-yl)thiomethyl-3-cephem-4-carboxylate [Exp. 88]	1	8	0.031	0.13	0.13	≤0.008	0.13	0.063	≤0.008	≤0.008	≤0.008	0.13	0.063	≤0.008	1	0.5	1	0.13	0.25	0.031	MIC values against the standard strains [21]: 0.063 µg/mL; MIC values against the standard strains [22]: 0.13 µg/mL; MIC values against the standard strains [23]: 0.13 µg/mL; MIC values against the standard strains [24]: 0.031 µg/mL; MIC values against the standard strains [25]: 8 µg/mL
7-[(Z)-2-(2-aminothiazol-4-yl)-2-((R)-1-carboxyprop-1-oxyimino)acetamido]-3-(7-amino-1-methyl [1,2,4]triazolo[1,5-c]pyrimidinium-5-yl)thiomethyl-3-cephem-4-carboxylate [Exp. 86]	2	16	0.031	0.13	0.25	≤0.008	0.13	0.063	≤0.008	≤0.008	≤0.008	0.13	0.13	≤0.008	2	1	1	0.25	0.25	0.031	MIC values against the standard strains [21]: 0.063 µg/mL; MIC values against the standard strains [22]: 0.13 µg/mL; MIC values against the standard strains [23]: 0.13 µg/mL; MIC values against the standard strains [24]: 0.25 µg/mL; MIC values against the standard strains [25]: 16 µg/mL
7-[(Z)-2-(2-aminothiazol-4-yl)-2-((S-1-carboxyeth-1-oxyimino)acetamido]-3-(7-amino-1-methyl [1,2,4]triazolo[1,5-c]pyrimidinium-5-yl)thiomethyl-3-cephem-4-carboxylate [Exp. 22(S)]	4	128	0.25	0.063	0.5	0.016	0.031	0.13	0.031	0.13	≤0.008	0.25	0.31	≤0.008	2	1	2	0.25	0.13	0.13	MIC values against the standard strains [21]: 0.063 µg/mL; MIC values against the standard strains [22]: 2 µg/mL; MIC values against the standard strains [23]: 4 µg/mL; MIC values against the standard strains [24]: 1 µg/mL; MIC values against the standard strains [25]: >128 µg/mL
